Laboratory results: patent publication US20090042814A1, “Treatment and Diagnosis of Obligate Intracellular Pathogens” (priority 2005, published 2009)

Key:
Chlamydia trachomatis = experiment: Antibiotic susceptibility test in McCoy cells (MIC, no inclusions detected); assay type: cell-based; settings: 72 h
Experimental: (§1) For Chlamydia trachomatis isolation McCoy cells were used and for Chlamydia pneumoniae—HL cells.
(§2) Cells of each cell line were seeded into 24-well cell culture plates (approximately 2×10^5 cells per well) with cover-slips and incubated at 37° C. for 24 h to achieve monolayer confluence.
(§3) 1 ml of serum was centrifuged at 14,000×g for 1 h at 4° C. to sediment bacterial cells. Supernatant was discarded and pellet was suspended in 0.5 ml of GM (growth medium: RPMI, 5% [vol/vol] fetal calf serum, 2.0 mM L-glutamine, 8.8% [vol/vol] glucose, 4.0 μg of gentamicin per ml and 5.0 of amfotherycin B/ml). The cell monolayers were inoculated with the suspensions and centrifuged at 2,500×g for an hour at 20 °C. The infected cells were incubated for 2 h at 37° C.; after that, the medium was removed and replaced by GM with cycloheximide (1.0 μg/ml). The cells were incubated at 37° C. in 4% CO2 for 72 h.
(§4) The cells on the cover-slips were fixed with acetone and stained with a fluorescein isothiocyanate (FITC)-labeled Chlamydia genus-specific (anti-LPS) and Chlamydia trachomatis-specific (anti-MOMP) antibodies. Chlamydia inclusions were detected by fluorescent microscopy.
(§5) McCoy and HL cells were seeded and inoculated with serum samples as described above but after centrifugation at 2,500×g for an hour and incubation for 2 h at 37° C. the infected cells were overlaid with the growth medium containing serial twofold dilutions of the antibiotic (Azithromycin, Pliva) at concentration range from 0.05 to 0.8 μg/ml and incubated at 37° C. in 4% CO2 for 72 h. Chlamydia trachomatis L-2 and Chlamydia pneumoniae Kajaani 6 strains were used as reference strains. The MIC was defined as the lowest concentration at which no inclusions were detected.

Chlamydia pneumoniae = experiment: Antibiotic susceptibility test in HL cells (MIC, no inclusions detected); assay type: cell-based; settings: 72 h
Experimental: as §1, §2, §3, §4, §5

CC[C@H]1OC(=O)[C@H](C)[C@@H](O[C@H]2C[C@@](C)(OC)[C@@H](O)[C@H](C)O2)[C@H](C)[C@@H](O[C@@H]2O[C@H](C)C[C@H](N(C)C)[C@H]2O)[C@](C)(O)C[C@@H](C)CN(C)[C@H](C)[C@@H](O)[C@]1(C)O [Azithromycin]
Range of anti-microbial concentration (Chlamydia trachomatis; Chlamydia trachomatis isolated from serum of Patient A): >0.4 µg/mL | Range of anti-microbial concentration (Chlamydia trachomatis; Chlamydia trachomatis isolated from serum of Patient B): >0.4 µg/mL | Range of anti-microbial concentration (Chlamydia trachomatis; Chlamydia trachomatis reference strain L-2, tested range 0.05 to 0.8 μg/ml): >0.1 µg/mL | Range of anti-microbial concentration (Chlamydia pneumoniae; Chlamydia pneumoniae isolated from serum of Patient C): >0.4 µg/mL | Range of anti-microbial concentration (Chlamydia pneumoniae; Chlamydia pneumoniae isolated from serum of Patient D): >0.4 µg/mL | Range of anti-microbial concentration (Chlamydia pneumoniae; Chlamydia pneumoniae reference strain Kajaani 6): >0.05 µg/mL
